What was measured:
Type in all cases: biochemical
[1] = target: T1, Human recombinant Acetyl-CoA Carboxylase 2 (ACC2) (Homo sapiens, UniProt O00763); test: Assay X: ACC2 inhibition, inorganic phosphate (malachite green); settings: Assay X: 37° C., 1.5 h, 5 min pre-incubation
Protocol: (§1) Human recombinant Acetyl-CoA Carboxylase 1 and Acetyl-CoA Carboxylase 2 (ACC1 and ACC2) were assayed by determining the amount of inorganic phosphate (Pi) generated. Pre-incubation of 15 μL enzyme together with 0.75 μL DMSO+/−compound for 5 min was done before the reaction was initiated by the addition of 10 μL substrate. […] After 1.5 h the reaction was stopped by addition of 74 μL of water followed by extensive mixing, split and transfer of 2×40 μL to a read-plate encompassing 30 μL distilled H2O per well (n=2→n=4). Colour reaction was initiated by addition of 30 μL malachite green reagent per well and allowed 15 min before absorbance reading of the plates at 660 nm. The malachite green reagent was prepared by mixing 16.4 mL ammonium molybdate solution (7.5%), 1.64 mL Tween (11%) with 82 mL Malachite Green/H2SO4-solution (0.7 g Malachite Green to 1000 mL of 10% (v/v) H2SO4).
(§2) All compounds were tested in triplicate at 10 different concentrations. Control compound (0, 50 and 100% effect) was included on each plate. […] Curve fitting was done using the following equation: y=(A+((B−A)/(1+((x/C)̂D)))) where A and B represents the curve bottom (% inhibition) and the total amplitude (% inhibition), respectively, whereas C and D are the apparent IC50 and curve slope, respectively.

[2] = target: T2, Human recombinant Acetyl-CoA Carboxylase 1 (ACC1) (Homo sapiens, UniProt Q13085); test: Assay X: ACC1 inhibition, inorganic phosphate (malachite green); settings: Assay X: 37° C., 1.5 h, 5 min pre-incubation
Protocol: as §1, §2

[3] = target: T1, Human recombinant Acetyl-CoA Carboxylase 2 (ACC2); test: Assay Y: ACC2 inhibition, inorganic phosphate (Malachite Green); settings: Assay Y: room temperature, 3 hr, 15 min preincubation
Outline: (§3)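 Enzyme preincubated with compound 15 min before substrate addition; reaction run 3 h, then phosphate detected with Malachite Green at 670 nm after 10 min at room temperature. Triplicate 10-point titrations; IC50 by non-linear four-parameter curve fitting.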

[4] = target: T2, Human recombinant Acetyl-CoA Carboxylase 1 (ACC1); test: Assay Y: ACC1 inhibition, inorganic phosphate (Malachite Green); settings: Assay Y: room temperature, 3 hr, 15 min preincubation
Outline: as §3

T1 sequence (O00763 whole entry): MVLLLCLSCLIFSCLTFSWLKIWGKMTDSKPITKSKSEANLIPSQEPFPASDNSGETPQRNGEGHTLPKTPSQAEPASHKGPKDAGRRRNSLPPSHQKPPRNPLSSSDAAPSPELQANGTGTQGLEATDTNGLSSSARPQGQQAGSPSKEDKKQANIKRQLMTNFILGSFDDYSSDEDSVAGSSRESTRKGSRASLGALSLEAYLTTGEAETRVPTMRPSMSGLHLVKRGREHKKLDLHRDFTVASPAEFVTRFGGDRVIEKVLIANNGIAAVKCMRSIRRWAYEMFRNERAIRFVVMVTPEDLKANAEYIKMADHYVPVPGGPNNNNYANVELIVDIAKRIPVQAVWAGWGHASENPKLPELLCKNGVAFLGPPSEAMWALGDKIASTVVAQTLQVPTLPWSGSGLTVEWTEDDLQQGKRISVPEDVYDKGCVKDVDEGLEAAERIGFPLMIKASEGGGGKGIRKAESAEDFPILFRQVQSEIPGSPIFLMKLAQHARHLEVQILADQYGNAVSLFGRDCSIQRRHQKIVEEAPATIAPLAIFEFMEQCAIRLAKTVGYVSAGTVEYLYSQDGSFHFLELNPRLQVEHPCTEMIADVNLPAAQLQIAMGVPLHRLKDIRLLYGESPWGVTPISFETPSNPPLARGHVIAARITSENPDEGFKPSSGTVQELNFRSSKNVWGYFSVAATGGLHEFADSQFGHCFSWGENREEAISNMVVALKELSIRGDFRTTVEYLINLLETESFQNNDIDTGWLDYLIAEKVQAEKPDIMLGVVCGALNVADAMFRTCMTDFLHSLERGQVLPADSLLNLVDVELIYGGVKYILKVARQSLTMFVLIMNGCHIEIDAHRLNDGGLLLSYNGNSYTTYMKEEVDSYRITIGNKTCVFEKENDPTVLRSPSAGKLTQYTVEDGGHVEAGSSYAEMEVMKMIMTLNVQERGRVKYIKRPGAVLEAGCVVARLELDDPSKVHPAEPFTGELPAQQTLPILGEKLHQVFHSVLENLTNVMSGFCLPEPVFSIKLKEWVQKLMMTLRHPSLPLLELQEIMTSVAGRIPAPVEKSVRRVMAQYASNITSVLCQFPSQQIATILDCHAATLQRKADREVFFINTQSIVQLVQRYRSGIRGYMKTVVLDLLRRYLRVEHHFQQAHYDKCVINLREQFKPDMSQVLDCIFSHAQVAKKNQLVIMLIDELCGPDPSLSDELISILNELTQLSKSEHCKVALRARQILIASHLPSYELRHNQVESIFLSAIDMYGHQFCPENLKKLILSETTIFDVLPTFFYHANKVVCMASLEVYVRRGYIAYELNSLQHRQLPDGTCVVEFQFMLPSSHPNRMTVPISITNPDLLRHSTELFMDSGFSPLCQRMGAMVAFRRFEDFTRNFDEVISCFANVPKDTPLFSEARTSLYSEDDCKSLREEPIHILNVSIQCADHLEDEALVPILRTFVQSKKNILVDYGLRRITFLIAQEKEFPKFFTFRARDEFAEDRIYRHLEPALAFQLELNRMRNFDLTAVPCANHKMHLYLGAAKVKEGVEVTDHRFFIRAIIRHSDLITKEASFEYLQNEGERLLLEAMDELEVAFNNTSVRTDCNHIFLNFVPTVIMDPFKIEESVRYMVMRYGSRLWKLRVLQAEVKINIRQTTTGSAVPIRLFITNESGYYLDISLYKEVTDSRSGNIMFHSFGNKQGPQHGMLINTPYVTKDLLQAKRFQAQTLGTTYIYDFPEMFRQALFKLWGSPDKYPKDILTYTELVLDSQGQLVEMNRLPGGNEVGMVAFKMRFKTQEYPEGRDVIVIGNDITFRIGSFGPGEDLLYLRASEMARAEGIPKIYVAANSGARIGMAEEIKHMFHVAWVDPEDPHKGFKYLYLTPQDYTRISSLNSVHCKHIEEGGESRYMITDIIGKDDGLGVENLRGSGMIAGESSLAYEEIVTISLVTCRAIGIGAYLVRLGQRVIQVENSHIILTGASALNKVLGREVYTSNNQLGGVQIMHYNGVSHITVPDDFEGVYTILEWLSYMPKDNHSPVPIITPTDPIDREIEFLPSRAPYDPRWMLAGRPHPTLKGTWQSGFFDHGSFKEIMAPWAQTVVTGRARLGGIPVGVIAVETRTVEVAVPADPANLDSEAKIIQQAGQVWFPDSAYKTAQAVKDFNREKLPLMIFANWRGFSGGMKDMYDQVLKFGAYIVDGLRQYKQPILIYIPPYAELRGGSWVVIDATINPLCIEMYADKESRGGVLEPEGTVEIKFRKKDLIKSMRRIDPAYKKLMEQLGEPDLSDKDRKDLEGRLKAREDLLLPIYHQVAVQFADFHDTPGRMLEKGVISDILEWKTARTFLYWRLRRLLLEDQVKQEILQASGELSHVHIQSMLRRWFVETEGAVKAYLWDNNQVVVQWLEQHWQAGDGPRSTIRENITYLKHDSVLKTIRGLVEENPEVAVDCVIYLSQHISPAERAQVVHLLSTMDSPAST

| Compound | IC50 [1] | IC50 [2] | IC50 [3] | IC50 [4] |
| --- | --- | --- | --- | --- |
| CN(C)S(=O)(=O)c1ccc(-c2cc(C(=O)NC[C@H]3CC[C@H](CNC(=O)OC4CCOCC4)CC3)c3ccccc3n2)cc1 [Example 140, Tetrahydro-2H-pyran-4-yl{[trans-4-({[(2-{4-[(dimethylamino)sulfonyl]phenyl}quinolin-4-yl)carbonyl]amino}-methyl)cyclohexyl]-methyl}carbamate] | – | – | 960 nM | 3310 nM |
| CN(C)S(=O)(=O)c1ccc(-c2cc(C(=O)NC[C@H]3CC[C@H](CNC(=O)O[C@H]4CCOC4)CC3)c3ccccc3n2)cc1 [Example 141, (3S)-Tetrahydrofuran-3-yl{[trans-4-({[(2-{4-[(dimethylamino)sulfonyl]phenyl}quinolin-4-yl)carbonyl]amino}-methyl)cyclohexyl]-methyl}carbamate] | – | – | 920 nM | 3900 nM |
| CN(C)CCNc1ccc(-c2cc(C(=O)NC[C@H]3CC[C@H](CNC(=O)OC(C)(C)C)CC3)c3ccccc3n2)cn1 [Example 146, tert-Butyl({trans-4-[({[2-(6-{[2-(dimethylamino)ethyl]-amino}pyridin-3-yl)quinolin-4-yl]carbonyl}amino)-methyl]cyclohexyl}-methyl)carbamate] | – | – | 30 nM | 180 nM |
| CN1CCN(CCCOc2cc(C(=O)NC[C@H]3CC[C@H](CNC(=O)OC(C)(C)C)CC3)c3ccccc3n2)CC1 [Example 180, tert-Butyl [(trans-4-{[({2-[3-(4-methylpiperazin-1-yl)propoxy]quinolin-4-yl}carbonyl)amino]methyl}cyclohexyl)methyl]carbamate] | – | – | 1060 nM | 6910 nM |
| CN(C)CCCOc1cc(C(=O)NC[C@H]2CC[C@H](CNC(=O)OC(C)(C)C)CC2)c2ccccc2n1 [Example 181, tert-Butyl[(trans-4-{[({2-[3-(dimethylamino)-propoxy]quinolin-4-yl}carbonyl)amino]-methyl}cyclohexyl)-methyl]carbamate] | – | – | 1340 nM | 12300 nM |
| CN1CCN(CCOc2cc(C(=O)NC[C@H]3CC[C@H](CNC(=O)OC(C)(C)C)CC3)c3ccccc3n2)CC1 [Example 182, tert-Butyl[(trans-4-{[({2-[2-(4-methylpiperazin-1-yl)ethoxy]quinolin-4-yl}carbonyl)amino]methyl}cyclohexyl)methyl]carbamate] | – | – | 1760 nM | 6430 nM |
| CC(=O)N1CCN(CCCOc2cc(C(=O)NC[C@H]3CC[C@H](CNC(=O)OC(C)(C)C)CC3)c3ccccc3n2)CC1 [Example 183, tert-Butyl[(trans-4-{[({2-[3-(4-acetylpiperazin-1-yl)propoxy]quinolin-4-yl}carbonyl)amino]-methyl}cyclohexyl)-methyl]carbamate] | – | – | 1260 nM | > 20000 nM |
| CN(C)CCOc1ccc(-c2cc(C(=O)NC[C@H]3CC[C@H](CNC(=O)OC(C)(C)C)CC3)c3ccccc3n2)cn1 [Example 184, tert-Butyl{[trans-4-({[(2-{6-[2-(dimethylamino)ethoxy]pyridin-3-yl}quinolin-4-yl)carbonyl]amino}-methyl)cyclohexyl]-methyl}carbamate] | – | – | 40 nM | 210 nM |
| CC(C)(C)OC(=O)NC[C@H]1CC[C@H](CNC(=O)c2cc(N3CCN(CCO)CC3)nc3ccccc23)CC1 [Example 185, tert-Butyl [(trans-4-{[({2-[4-(2-hydroxyethyl)piperazin-1-yl]quinolin-4-yl}carbonyl)amino]methyl}cyclohexyl)methyl]carbamate] | – | – | 1120 nM | > 20000 nM |
| CN(C)CCN1CCN(c2cc(C(=O)NC[C@H]3CC[C@H](CNC(=O)OC(C)(C)C)CC3)c3ccccc3n2)CC1 [Example 186, tert-Butyl{[trans-4-({[(2-{4-[2-(dimethylamino)ethyl]-piperazin-1-yl}quinolin-4-yl)carbonyl]amino}-methyl)cyclohexyl]-methyl}carbamate] | – | – | 140 nM | 2220 nM |
| CC(C)(C)OC(=O)NC[C@H]1CC[C@H](CNC(=O)c2cc(N3CCC(O)CC3)nc3ccccc23)CC1 [Example 187, tert-Butyl({trans-4-[({[2-(4-hydroxypiperidin-1-yl)quinolin-4-yl]carbonyl}amino)-methyl]cyclohexyl}-methyl)carbamate] | – | – | 560 nM | 8480 nM |
| CC(C)(C)OC(=O)NC[C@H]1CC[C@H](CNC(=O)c2cc(N3CCC(CO)CC3)nc3ccccc23)CC1 [Example 188, tert-Butyl[(trans-4-{[({2-[4-(hydroxymethyl)-piperidin-1-yl]quinolin-4-yl}carbonyl)amino]-methyl}cyclohexyl)-methyl]carbamate] | – | – | 270 nM | 5640 nM |
| CC(C)(C)OC(=O)NC[C@H]1CC[C@H](CNC(=O)c2cc(N3CCC(CCO)CC3)nc3ccccc23)CC1 [Example 189, tert-butyl [(trans-4-{[({2-[4-(2-hydroxyethyl)piperidin-1-yl]quinolin-4-yl}carbonyl)amino]methyl}cyclohexyl)methyl]carbamate] | – | – | 70 nM | 1960 nM |
| CN1CCN(c2ccc(-c3cc(C(=O)N[C@H]4CC[C@H](CNC(=O)OC(C)(C)C)CC4)c4ccccc4n3)cn2)CC1 [Example 204, tert-Butyl ({trans-4-[({2-[6-(4-methylpiperazin-1-yl)pyridin-3-yl]quinolin-4-yl}carbonyl)amino]cyclohexyl}methyl)carbamate] | – | – | 380 nM | 3800 nM |

The next lines start with the values.

| IC50 [1] | IC50 [2] | IC50 [3] | IC50 [4] | Compound |
| --- | --- | --- | --- | --- |
| 180 nM | 410 nM | – | – | CC(C)(C)OC(=O)NC[C@H]1CC[C@H](CNC(=O)c2cc(-c3ccc(N4CCCC(O)C4)nc3)nc3ccccc23)CC1 (relative stereo) [Example 157, tert-Butyl[(trans-4-{[({2-[6-(3-hydroxypiperidin-1-yl)pyridin-3-yl]-quinolin-4-yl}carbonyl)amino]methyl}cyclohexyl)methyl]carbamate] |
| – | – | 130 nM | > 20000 nM | CC(=O)N1CCN(c2ccc(-c3cc(C(=O)NC[C@H]4CC[C@H](CNC(=O)OC(C)(C)C)CC4)c4ccccc4n3)cn2)CC1 [Example 142, tert-Butyl [(trans-4-{[({2-[6-(4-acetylpiperazin-1-yl)pyridin-3-yl]quinolin-4-yl}carbonyl)amino]methyl}cyclohexyl)methyl]carbamate] |
| – | – | 30 nM | 360 nM | CC(C)(C)OC(=O)NC[C@H]1CC[C@H](CNC(=O)c2cc(-c3ccc(NCCO)nc3)nc3ccccc23)CC1 [Example 143, tert-Butyl{[trans-4-({[(2-{6-[(2-hydroxyethyl)amino]pyridin-3-yl}quinolin-4-yl)carbonyl]amino}methyl)cyclohexyl]methyl}carbamate] |
| – | – | 220 nM | 4000 nM | CC(C)(C)OC(=O)NC[C@H]1CC[C@H](CNC(=O)c2cc(-c3ccc(N4CCCC4)nc3)nc3ccccc23)CC1 [Example 144, tert-Butyl({trans-4-[({[2-(6-pyrrolidin-1-ylpyridin-3-yl)quinolin-4-yl]carbonyl}amino)methyl]cyclohexyl}methyl)carbamate] |
| – | – | 60 nM | 280 nM | CC(C)(C)OC(=O)NC[C@H]1CC[C@H](CNC(=O)c2cc(-c3ccc(N4CCOCC4)nc3)nc3ccccc23)CC1 [Example 145, tert-Butyl({trans-4-[({[2-(6-morpholin-4-ylpyridin-3-yl)-quinolin-4-yl]carbonyl}amino)-methyl]cyclohexyl}methyl)carbamate] |
| – | – | 30 nM | 2590 nM | CC(C)(C)OC(=O)NC[C@H]1CC[C@H](CNC(=O)c2cc(-c3ccc(N4CC[C@@H](O)C4)nc3)nc3ccccc23)CC1 [Example 147, tert-Butyl{[trans-4-({[(2-{6-[(3R)-3-hydroxypyrrolidin-1-yl]pyridin-3-yl}quinolin-4-yl)carbonyl]amino}-methyl)cyclohexyl]-methyl}carbamate] |
| – | – | 70 nM | 460 nM | C[C@@H](CO)Nc1ccc(-c2cc(C(=O)NC[C@H]3CC[C@H](CNC(=O)OC(C)(C)C)CC3)c3ccccc3n2)cn1 [Example 148, tert-Butyl({trans-4-[({[2-(6-{[(1S)-2-hydroxy-1-methylethyl]amino}-pyridin-3-yl)quinolin-4-yl]carbonyl}amino)-methyl]cyclohexyl}-methyl)carbamate] |
| – | – | 50 nM | 390 nM | C[C@H](CO)Nc1ccc(-c2cc(C(=O)NC[C@H]3CC[C@H](CNC(=O)OC(C)(C)C)CC3)c3ccccc3n2)cn1 [Example 149, tert-Butyl({trans-4-[({[2-(6-{[(1R)-2-hydroxy-1-methylethyl]amino}-pyridin-3-yl)quinolin-4-yl]carbonyl}amino)-methyl]cyclohexyl}-methyl)carbamate] |
| 410 nM | – | – | – | CC(C)(C)OC(=O)NC[C@H]1CC[C@H](CNC(=O)c2cc(-c3ccc(OCC4CCOC4)nc3)nc3ccccc23)CC1 (stereo partly drawn) [Example 173, tert-Butyl [(trans-4-{[({2-[6-(tetrahydrofuran-3-ylmethoxy)pyridin-3-yl]quinolin-4-yl}carbonyl)amino]methyl}cyclohexyl)methyl]carbamate] |

Source: US20090306133A1, “New Acetyl Coenzyme A Carboxylase (ACC) Inhibitors And Uses In Treatments Of Obesity And Diabetes Mellitus - 087” (ASTRAZENECA AB, priority 2007, published 2009)
